Data on two compounds can be found in patent US11440903B2, “Salt form and crystal form of compound as FGFR4 inhibitor and preparation method thereof” (GUANGDONG ZHONGSHENG PHARMACEUTICAL CO., LTD, priority 2017, dated 2022).

The nature of data set [1]: Solubility test in biological media (FaSSIF, FeSSIF, SGF) and water, 37° C. The format is physicochemical. Particulars: for Status (24 h) / solubility at 24 h / pH 24 hours: 37° C.; for Status (24 h): about 4 mg in 2 mL; for solubility at 24 h: salt forms converted to salt concentrations, read-out: Solubility (mg/mL) 24 hours; for pH 24 hours: supernatant; for pH 0 hour: initial. The procedure:
Step 1: Preparation of Control Solutions (0.2 mg/mL, calculated by free base)
2 mg the crystal form B of the compound represented by formula (I) (or 2.4 mg the crystal form E of the compound represented by formula (II)) as a control was precisely weighed and placed into a 40 mL glass vial, and a diluent (10 mL) was precisely added. The reaction solution was subjected to ultrasonic treatment for 20 min to sufficiently dissolve, then cooled to room temperature and shaked well. Two control solutions (STD #1, STD #2) were formulated in accordance with this method.
Step 2: Preparation of Linear Solutions
The control solution STD #1 of the crystal form B of the compound represented by formula (I) was 1×, 10×, 100×, 1000× and 2000× (free base LOQ) diluted, and designated as the linear solutions L1, L2, L3, L4 and L5; the control solution STD #1 of the crystal form E of the compound represented by formula (II) was 1×, 10×, 100× and 1000× (methanesulfonate LOQ) diluted, and designated as the linear solutions L1, L2, L3, L4.
Step 3: Solubility Test of the crystal form B of the compound represented by formula (I), the crystal form G of the compound represented by formula (III) and the crystal form E of the compound represented by formula (II) in biological media and water
4 samples (about 4 mg) of each of the crystal form B of the compound represented by formula (I), the crystal form E of the compound represented by formula (II), and the crystal form G of the compound represented by formula (III) were added into 12 glass vials (4 mL), respectively, and then 2 mL different biological media (FaSSIF, FeSSIF, SGF) and water were added into each compound respectively, then mixed homogeneously to form a suspension. The suspension was detected for its initial pH value. A magnet was added into the suspension, and placed on a magnetic stirring heater for stirring (at a temperature of 37° C., in dark). After stirring for 24 h, a sample was taken. The taken sample was quickly centrifuged, and the residual solid was detected by XRPD. The supernatant was detected for its pH value and diluted with a diluent into appropriate multiple, then measured with HPLC for its concentration.
FaSSIF: 1. 0.042 g sodium hydroxide, 0.3438 g sodium dihydrogen phosphate and 0.6186 g sodium chloride were weighed, added into 90 mL purified water, and homogeneously mixed, then, the mixture was adjusted with 1 N hydrochloric acid or 1 N sodium hydroxide to pH=6.5, and diluted into a constant volume of 100 mL with purified water; 2. 50 mL of the buffer described above was taken, and 0.224 g commercially available powder (Biorelevant.com) of FaSSIF/FeSSIF/FaSSGF was added thereto, the mixture was stirred to dissolve, and diluted with purified water to a constant volume of 100 mL.
FeSSIF: 1. 0.404 g sodium hydroxide, 0.865 g glacial acetic acid, and 1.1874 g sodium chloride were weighed, added into 90 mL purified water, and homogeneously mixed, then, the mixture was adjusted with 1 N hydrochloric acid or 1 N sodium hydroxide to pH=5.0, and diluted with purified water to a constant volume of 100 mL, 2. 50 mL of the buffer described above was taken, and 1.12 g commercially available powder (Biorelevant.com) of FaSSIF/FeSSIF/FaSSGF was added thereto, the mixture was stirred to dissolve, and diluted with purified water to a constant volume of 100 mL.
FaSSGF (SGF): 1. 0.2 g sodium chloride was weighed, added into 90 mL purified water, and mixed homogeneously, the mixture was adjusted with 1 N hydrochloric acid to pH=1.8, and diluted with purified water to a constant volume of 100 mL, and stood at room temperature.

Data set [2] can be described thus: Stability of the crystal form on stirring as suspension in solvent (40° C., 2 days). The conditions noted are these: stirring in acetone at 40° C. The class given is physicochemical. The procedure:
30 mg of the compound represented by formula (I) was weighed and added into a glass flask, 400 μL acetonitrile-water (1:1) was added to form a suspension. A sample of the suspension was placed on a magnetic stirrer (40° C.) for a dark stirring experiment. The sample of the suspension was centrifuged after stirring at 40° C. for 2 days, and then the residual sample was dried in a vacuum drying oven (30° C.) overnight to give a crystal form A of the compound represented by formula (I). The XRPD pattern of the crystal form A of the compound represented by formula (I) is shown in FIG. 1, the DSC pattern is shown in FIG. 2, and the TGA pattern is shown in FIG. 3.
30 mg of the compound represented by formula (I) was weighed and added into a glass flask, and 400 μL ethyl acetate was added to form a suspension. A sample of the suspension was placed on a magnetic stirrer (40° C.) for dark stirring experiment. The sample of the suspension was centrifuged after stirring at 40° C. for 2 days, and then the residual sample was dried in a vacuum drying oven (30° C.) overnight. The crystal form was detected by XRPD to give a crystal form A of the compound represented by formula (I).
30 mg of the compound represented by formula (I) was weighed and added into a glass flask, and 400 μL methanol was added to form a suspension. A sample of the suspension was placed on a magnetic stirrer (40° C.) for dark stirring experiment. The sample of the suspension was centrifuged after stirring at 40° C. for 2 days, and then the residual sample was dried in a vacuum drying oven (30° C.) overnight to give a crystal form B of the compound represented by formula (I). The XRPD pattern of the crystal form B of the compound represented by formula (I) is shown in FIG. 4, the DSC pattern is shown in FIG. 5, and the TGA pattern is shown in FIG. 6.
50 mg of the compound represented by formula (I) was weighed and added into a 1.5 mL liquid vial, and 200 μL methanol was added thereto, the obtained mixture was homogeneously mixed under ultrasound. The dissolved sample was quickly centrifuged, and the supernatant was placed in a centrifuge tube, the mouth of the tube was packed with a pierced aluminum foil, and then the tube was placed in a fume cupboard for volatilization; the sample of the suspension was placed on a magnetic stirring heater (40° C.) for stirring (in dark), and quickly centrifuged after 2 days. The resultant solid was collected and dried at 30° C. in a vacuum drying oven overnight to give the crystal form C of the compound represented by formula (I). The XRPD pattern of the crystal form C of the compound represented by formula (I) is shown in FIG. 7, the DSC pattern is shown in FIG. 8, and the TGA pattern is shown in FIG. 9.
50 mg of the compound represented by formula (I) was weighed and added into a 1.5 mL liquid vial, and 200 μL ethanol was added thereto, and the obtained mixture was homogeneously mixed under ultrasound. The dissolved sample was quickly centrifuged, the supernatant was placed into a centrifuge tube, and the mouth of the tube was packed with a pierced aluminum foil, and placed in a fume cupboard for volatilization; the sample of the suspension was placed on a magnetic stirring heater (40° C.) for stirring (in dark), and quickly centrifuged after 2 days. The solid obtained as above was collected and dried at 30° C. in a vacuum drying oven overnight to give a crystal form D of the compound represented by formula (I). The XRPD pattern of the crystal form D of the compound represented by formula (I) is shown in FIG. 10, the DSC pattern is shown in FIG. 11, and the TGA pattern is shown in FIG. 12.
35 mg of the compound represented by formula (II) was weighed and added into a 1.5 mL liquid vial, and 400 μL methanol was added thereto, and the obtained mixture was homogeneously mixed under ultrasound. […]

In another data set the target is T1, FGFR1 protein kinase (Homo sapiens, UniProt P11362).
T1 construct: purchased Life technology
Kind of data set: In vitro enzyme activity test, Z'-LYTE Assay, FGFR1 enzymatic reaction. The conditions noted are these: 25 uM ATP, room temperature 60 min. The format is biochemical. On the procedure:
(§1) The enzyme activity was detected by Z′-LYTE® Assay with IC50 value of the compound used as an index for evaluating the inhibitory effect of the compound on FGFR4 kinases. The activity test was completed in Life technology.
(§2) The test compound was subjected to 3× gradient dilution, and the final concentrations included 10 concentrations from 10 μM to 0.5 nM, with two duplicates per concentration; the content of DMSO used in the detection reaction was 1%.
1 nM FGFR1 protein kinase, 2 μM Tyr4 peptide, 25 uM ATP, 50 mM HEPES (pH 7.5), 10 mM MgCl2, 1 mM EGTA, 0.01% BRIJ-35, 2 mM MnCl2, and 1 mM DTT. The detection plate was Black Proxiplate 384-Plus plate (PerkinElmer), the reaction was implemented at room temperature for 60 min, and the reaction system was 10 μL.
(§3) 5 μL Development reagent B (1:64) was added into the kinase reaction solution to stop the reaction, and the reaction solution was incubated at 23° C. for 60 min, the plate was read with Envision instrument.
(§4) The data were converted to the phosphorylation rate and the inhibitory rate, and was subjected to curve fitting with Model 205 in XLFIT (iDBS) to give the IC50 data of the compound. If the bottom of the curve was not in the range of −20% to 20%, it was set as 0%; and if the top of the curve was not in the range of 70% to 130%, it was set as 100%.

For another data set, the target named is T2, FGFR4 kinase (Homo sapiens, UniProt P22455).
T2 construct: purchased Life technology
Briefly: In vitro enzyme activity test, Z'-LYTE Assay, FGFR4 enzymatic reaction. The format is biochemical. Particulars: 150 μM ATP, room temperature 60 min. On the procedure: as §1, §2
[…] The detection plate was Bar-coded Corning, low volume NBS, black 384-well plate, the reaction was implemented at room temperature for 60 min, and the reaction system was 10 μL.
as §3, §4

Where two headings read alike, the source gives them in different places.

T1 sequence (P11362 22-822): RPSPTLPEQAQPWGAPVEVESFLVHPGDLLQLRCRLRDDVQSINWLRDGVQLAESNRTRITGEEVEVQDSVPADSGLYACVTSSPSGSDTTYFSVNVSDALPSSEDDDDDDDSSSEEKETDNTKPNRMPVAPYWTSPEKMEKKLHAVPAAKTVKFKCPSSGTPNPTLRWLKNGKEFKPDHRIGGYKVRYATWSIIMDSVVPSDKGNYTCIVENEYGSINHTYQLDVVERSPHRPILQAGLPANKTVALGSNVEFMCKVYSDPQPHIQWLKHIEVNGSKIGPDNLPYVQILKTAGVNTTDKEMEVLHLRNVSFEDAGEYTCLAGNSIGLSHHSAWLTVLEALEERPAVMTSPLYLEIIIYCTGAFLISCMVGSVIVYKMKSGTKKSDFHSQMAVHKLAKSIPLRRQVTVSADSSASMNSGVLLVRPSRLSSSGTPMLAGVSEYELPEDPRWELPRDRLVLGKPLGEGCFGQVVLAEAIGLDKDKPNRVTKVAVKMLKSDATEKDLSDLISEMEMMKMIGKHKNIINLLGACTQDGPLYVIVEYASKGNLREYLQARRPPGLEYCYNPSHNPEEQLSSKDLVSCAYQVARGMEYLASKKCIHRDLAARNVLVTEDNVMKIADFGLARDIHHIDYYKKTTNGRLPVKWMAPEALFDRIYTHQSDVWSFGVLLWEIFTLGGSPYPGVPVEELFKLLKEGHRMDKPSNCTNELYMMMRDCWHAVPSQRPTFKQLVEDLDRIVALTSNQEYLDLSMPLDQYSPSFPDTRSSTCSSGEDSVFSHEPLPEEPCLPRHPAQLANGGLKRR
T2 sequence (P22455 22-802): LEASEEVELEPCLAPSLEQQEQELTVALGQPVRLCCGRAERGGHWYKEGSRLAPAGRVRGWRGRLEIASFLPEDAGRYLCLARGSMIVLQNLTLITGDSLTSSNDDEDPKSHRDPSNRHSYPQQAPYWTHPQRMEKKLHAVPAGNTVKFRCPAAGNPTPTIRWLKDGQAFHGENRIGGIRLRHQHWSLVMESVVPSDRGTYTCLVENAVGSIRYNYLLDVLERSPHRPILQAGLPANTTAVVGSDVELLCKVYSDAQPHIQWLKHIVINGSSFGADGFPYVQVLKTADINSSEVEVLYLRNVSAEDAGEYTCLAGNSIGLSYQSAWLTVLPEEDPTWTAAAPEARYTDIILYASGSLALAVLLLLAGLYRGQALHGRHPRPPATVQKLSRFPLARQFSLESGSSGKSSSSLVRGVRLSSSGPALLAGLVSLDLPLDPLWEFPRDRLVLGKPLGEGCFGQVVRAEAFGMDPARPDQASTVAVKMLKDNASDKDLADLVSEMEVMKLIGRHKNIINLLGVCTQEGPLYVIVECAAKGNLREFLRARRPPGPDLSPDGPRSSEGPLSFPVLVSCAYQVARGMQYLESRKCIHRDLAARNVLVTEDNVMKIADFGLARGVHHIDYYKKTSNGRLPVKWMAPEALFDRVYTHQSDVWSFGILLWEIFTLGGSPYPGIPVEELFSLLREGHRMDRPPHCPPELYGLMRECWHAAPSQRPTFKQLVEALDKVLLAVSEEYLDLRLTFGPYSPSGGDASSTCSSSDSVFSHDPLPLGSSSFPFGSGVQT

`C=CC(=O)N[C@H]1COC[C@H]1Nc1ncc(/C=C(\F)c2c(Cl)c(OC)cc(OC)c2Cl)cn1.O=S(=O)(O)O`: the “Status (24 h)” value in data set [1] (FaSSIF), in data set [1] (FeSSIF), in data set [1] (SGF) and in data set [1] (Water) was “Suspension” each time. Besides, the “solubility in three types of biological media, conclusion in words” value in data set [1] (FaSSIF, FeSSIF, SGF) is on record as “good solubility”. Also, the solubility at 24 h in data set [1] (SGF (FaSSGF), pH 1.8, simulated gastric fluid, thermodynamic from solid, SGF) is 0.045 mg/mL; in data set [1] (pH 5, thermodynamic from solid, FeSSIF) it was 0.668 mg/mL; in data set [1] (pH 6.5, thermodynamic from solid, FaSSIF), 0.079 mg/mL; in data set [1] (thermodynamic from solid, Water) it was 0.028 mg/mL. Further, the “pH 24 hours” value in data set [1] (FaSSIF) was 6.38; in data set [1] (FeSSIF) it was 4.99; in data set [1] (SGF) it was 2.14; in data set [1] (Water), 2.47. Besides, the “pH 0 hour” value in data set [1] (suspension in FaSSIF) came out at 6.54; in data set [1] (suspension in FeSSIF) it was 4.87; in data set [1] (suspension in SGF), 2.03; in data set [1] (suspension in Water), 2.34. Besides, the “stability in the acetone solution” value in data set [2] is “substantially high stability”.
For `C=CC(=O)N[C@H]1COC[C@H]1Nc1ncc(/C=C(\F)c2c(Cl)c(OC)cc(OC)c2Cl)cn1` [Compound represented by formula (I)], the IC50 on FGFR1 protein kinase amounted to 1460 nM; on FGFR4 kinase it was 17 nM.

The IC50 is the concentration that inhibits the measured activity by half.
